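Cells were grown in 96-well plates and exposed to each compound for 48 hours at five concentrations; endpoints were interpolated linearly between bracketing concentrations, or set to the highest concentration if not reached. GI50 marks 50% less growth.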 Activity calls are given as the source filed them. Rule as the data show it: active = GI50 up to about 1.1 µM and inactive = higher.

Consider eight compounds from ChEMBL document CHEMBL1201862, “PubChem BioAssay data set” (2004).

Test systems include 786-0; A498; A549; CAKI-1; COLO 205; HCT-116; HCT-15; Hs-578T; MDA-MB-435; NCI-H226; OVCAR-5; SF-295; SK-MEL-28; SK-MEL-5; SK-OV-3; T47D; TK-10; U-251; UACC-257; MOLT-4.
Holding throughout (experiment): NCI tumour cell line growth inhibition, 48 h

Take `COc1nc2ncc([C@@H](OC(C)=O)[C@@H](COC(C)=O)OC(C)=O)nc2c(=O)[nH]1`: the GI50 in the assay with 786-0, in the assay on A498, with A549, with CAKI-1, in the assay with COLO 205 and in the assay with HCT-116 was > 100 µM (inactive) in each case. The GI50 in the assay with HCT-15 is greater than 100 µM; with Hs-578T, > 100 µM (inactive); in the assay on MDA-MB-435, > 100 µM (inactive); in the assay on NCI-H226, 51.5 µM (inactive); in the assay on OVCAR-5 it was > 100 µM (inactive); with SF-295, > 100 µM (inactive). For the same compound, the GI50 in the assay with SK-MEL-28, in the assay on SK-MEL-5, in the assay with SK-OV-3, in the assay with T47D, with TK-10 and in the assay on U-251 was > 100 µM (inactive) each time. Also, in the assay with UACC-257, the GI50 was > 100 µM (inactive).
With `Cc1csc2nc(-c3ccc([N+](=O)[O-])cc3)c(/C=N/N=C(N)N)n12`, the GI50 in the assay on 786-0 was 1.94 µM (inactive); in the assay with A498 it was 1.82 µM (inactive); with A549, 1.84 µM (inactive); in the assay on CAKI-1 it was 4.73 µM (inactive); with COLO 205, 1.53 µM (inactive); with HCT-116, 1.81 µM (inactive). Further, the GI50 in the assay with HCT-15 is 0.791 µM; in the assay with Hs-578T, 2.09 µM (inactive); with MDA-MB-435, 1.64 µM (inactive); in the assay on NCI-H226 it was 1.73 µM (inactive); with OVCAR-5, 1.52 µM (inactive); in the assay on SF-295, 1.74 µM (inactive). The GI50 in the assay with SK-MEL-28 is 1.74 µM (inactive); with SK-MEL-5, 1.91 µM (inactive); in the assay on SK-OV-3 it was 1.69 µM (inactive); in the assay with T47D it was 2.79 µM (inactive); with TK-10, 1.92 µM (inactive); with U-251, 1.8 µM (inactive). The GI50 with UACC-257 was 1.91 µM (inactive).
With `Cc1ccc(C2=Nc3c(N)nc(N)nc3NC(c3ccccc3)C2)cc1` (centres undefined), the GI50 with 786-0 was 12 µM (inactive); with A498, 11.4 µM (inactive); with A549, 10.9 µM (inactive); with CAKI-1, 10.5 µM (inactive); with HCT-116 it was 5.53 µM (inactive); with HCT-15, 4.92 µM. Further, the GI50 with Hs-578T was 13 µM (inactive); in the assay with MDA-MB-435, 2.24 µM (inactive); with MOLT-4, 5.14 µM (inactive); with NCI-H226, 14.3 µM (inactive); in the assay on OVCAR-5 it was 16.4 µM (inactive); in the assay on SK-MEL-28 it was 12 µM (inactive). For the same compound, the GI50 in the assay on SK-MEL-5 is 10 µM (inactive); with SK-OV-3 it was 13.9 µM (inactive); in the assay with T47D, 12.6 µM (inactive); with TK-10, 14.4 µM (inactive); in the assay on U-251 it was 12.1 µM (inactive); in the assay on UACC-257, 12.2 µM (inactive).
Consider `CC1(C)N=c2c(ncn2N)=C(C(N)=O)N1`, for which the GI50 in the assay with 786-0, in the assay on A498, in the assay with A549, with CAKI-1, in the assay on COLO 205 and with HCT-116 was > 100 µM (inactive) each time. Also, the GI50 with HCT-15 was greater than 100 µM; in the assay with Hs-578T, > 100 µM (inactive); in the assay on MDA-MB-435, > 100 µM (inactive); with NCI-H226, > 100 µM (inactive); with OVCAR-5 it was > 100 µM (inactive); in the assay on SF-295 it was > 100 µM (inactive). In addition, the GI50 in the assay on SK-MEL-28, in the assay with SK-MEL-5, with SK-OV-3, with T47D, with TK-10 and in the assay with U-251 was > 100 µM (inactive) each time. Also, in the assay on UACC-257, the GI50 was > 100 µM (inactive).
For `Cc1nc(C)c(N2CCN(C#N)CC2)c(O)n1`, the GI50 with 786-0, in the assay with A498, with A549, in the assay with CAKI-1, with COLO 205 and in the assay on HCT-116 was > 100 µM (inactive) each time. In addition, the GI50 was greater than 100 µM in the assay on HCT-15; > 100 µM (inactive) in the assay on Hs-578T; > 100 µM (inactive) in the assay on MDA-MB-435; > 100 µM (inactive) in the assay on MOLT-4; > 100 µM (inactive) in the assay with NCI-H226; > 100 µM (inactive) in the assay on SF-295. In addition, the GI50 in the assay on SK-MEL-28 was > 100 µM (inactive); with SK-MEL-5, > 100 µM (inactive); with SK-OV-3 it was > 100 µM (inactive); in the assay with T47D, > 100 µM (inactive); with TK-10 it was > 100 µM (inactive); in the assay on U-251, 77.8 µM (inactive). The GI50 in the assay on UACC-257 was > 100 µM (inactive).
For the compound `Cc1cc(S(=O)(=O)n2ccnc2Oc2ccccc2)c(SSc2cc(Cl)c(C)cc2S(=O)(=O)n2ccnc2Oc2ccccc2)cc1Cl`, the GI50 was 93.3 µM (inactive) with 786-0; > 100 µM (inactive) with A498; > 100 µM (inactive) in the assay on A549; > 100 µM (inactive) in the assay on CAKI-1; > 100 µM (inactive) in the assay on COLO 205; > 100 µM (inactive) in the assay on HCT-116. For the same compound, the GI50 in the assay with HCT-15 was greater than 100 µM; with Hs-578T it was 1.95 µM (inactive); with MDA-MB-435, > 100 µM (inactive); in the assay on NCI-H226, 15.9 µM (inactive); with OVCAR-5, > 100 µM (inactive); with SK-MEL-28, > 100 µM (inactive). Besides, the GI50 with SK-MEL-5 is 24.9 µM (inactive); in the assay with SK-OV-3, > 100 µM (inactive); with T47D, > 100 µM (inactive); in the assay on TK-10, > 100 µM (inactive); in the assay on U-251, > 100 µM (inactive); with UACC-257, > 100 µM (inactive).
For `O=C1/C(=C/c2ccccc2O)N=C(c2ccccc2)N1c1nc2ccccc2s1`, the GI50 with 786-0 was 14.5 µM (inactive); in the assay on A498, 20.4 µM (inactive); in the assay with CAKI-1, 32.7 µM (inactive); with HCT-116, 14.3 µM (inactive); in the assay with HCT-15, 6.11 µM; in the assay with Hs-578T, 16 µM (inactive). Further, the GI50 with MDA-MB-435 is 3.1 µM (inactive); in the assay on MOLT-4 it was 19.5 µM (inactive); in the assay on NCI-H226, 22.7 µM (inactive); in the assay with OVCAR-5, 51.4 µM (inactive); in the assay on SF-295 it was 14.7 µM (inactive); in the assay on SK-MEL-28, 21.3 µM (inactive). The GI50 in the assay on SK-MEL-5 is 7.57 µM (inactive); in the assay on SK-OV-3, 23.4 µM (inactive); in the assay with T47D it was 21.1 µM (inactive); in the assay with TK-10, 23.8 µM (inactive); in the assay with U-251, 10.1 µM (inactive); in the assay on UACC-257 it was 19.8 µM (inactive).
Consider `COc1ccc2[nH]c3ccc4cc[n+](CCN5CCC(C6CCN(CC[n+]7ccc8ccc9[nH]c%10ccc(OC)cc%10c9c8c7)CC6)CC5)cc4c3c2c1`, for which the GI50 was 0.249 µM (active) in the assay with 786-0; > 16.2 µM (inactive) with A498; 0.409 µM (active) with A549; 1.02 µM (active) with CAKI-1; 0.262 µM (active) with HCT-116; 2.24 µM in the assay on HCT-15. Also, the GI50 in the assay with Hs-578T is 33 µM (inactive); in the assay with MDA-MB-435, > 50 µM (inactive); with MOLT-4 it was 0.346 µM (active); in the assay on NCI-H226, 29.4 µM (inactive); with OVCAR-5 it was > 76 µM (inactive); with SF-295, 1.64 µM (inactive). Also, the GI50 in the assay on SK-MEL-28 was 1.88 µM (inactive); with SK-MEL-5, 1.81 µM (inactive); in the assay with SK-OV-3, 6.37 µM (inactive); with T47D, 20.4 µM (inactive); in the assay with TK-10, 21.4 µM (inactive); in the assay with U-251, 4.67 µM (inactive). Also, in the assay with UACC-257, the GI50 is 35.2 µM (inactive).
